From US8507690B2, “Thiazole derivative and use thereof as VAP-1 inhibitor” (R-Tech Ueno, Ltd., priority 2008, dated 2013)
Counter-ions that a name gives are not always drawn.

Legend:
[1] = biological target: T1, human VAP-1 enzyme (SSAO) (Homo sapiens, UniProt Q16853); experiment: Enzyme activity inhibitory effect on human VAP-1 enzyme (SSAO), radiochemical-enzyme assay with 14C-benzylamine; format: biochemical; details: human VAP-1 (SSAO) cell extract, 14C-benzylamine 1×10^−5 mol/l, 37° C. 2 hours
T1 construct: made in house; cell extract used
T1 sequence (Q16853 1-763): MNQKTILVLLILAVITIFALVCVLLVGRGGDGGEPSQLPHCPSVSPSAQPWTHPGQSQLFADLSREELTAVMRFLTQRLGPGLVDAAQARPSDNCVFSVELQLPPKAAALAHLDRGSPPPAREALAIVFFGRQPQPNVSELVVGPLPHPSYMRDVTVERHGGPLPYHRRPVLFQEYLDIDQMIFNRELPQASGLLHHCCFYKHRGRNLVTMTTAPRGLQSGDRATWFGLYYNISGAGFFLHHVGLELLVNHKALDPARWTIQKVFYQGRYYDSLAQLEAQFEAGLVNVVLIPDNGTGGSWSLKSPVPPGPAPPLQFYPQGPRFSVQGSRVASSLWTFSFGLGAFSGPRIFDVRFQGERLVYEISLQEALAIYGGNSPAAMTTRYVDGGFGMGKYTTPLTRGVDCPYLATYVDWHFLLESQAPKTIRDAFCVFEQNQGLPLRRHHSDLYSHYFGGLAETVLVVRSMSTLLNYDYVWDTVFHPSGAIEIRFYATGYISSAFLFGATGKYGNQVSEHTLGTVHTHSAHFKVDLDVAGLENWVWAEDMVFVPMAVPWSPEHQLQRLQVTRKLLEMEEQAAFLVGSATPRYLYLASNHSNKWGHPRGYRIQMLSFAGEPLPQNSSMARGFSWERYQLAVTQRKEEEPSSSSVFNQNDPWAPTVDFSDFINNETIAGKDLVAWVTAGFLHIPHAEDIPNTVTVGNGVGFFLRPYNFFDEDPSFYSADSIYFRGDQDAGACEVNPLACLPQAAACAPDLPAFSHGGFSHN
Protocol: (§1) The compounds of the present invention obtained in Production Examples were examined for the enzyme activity inhibitory effect on human and rat VAP-1 enzyme (SSAO) by the following method.
(§2) The VAP-1 enzyme (SSAO) activity in both human and rat was measured by a radiochemical-enzyme assay using ^14C-benzylamine as an artificial substrate. Human or rat VAP-1 was cloned from the cDNA library and expressed in a cell. The cell extract was preincubated with a test compound solution (final concentration 1×10^−7-1×10^−11 mol/l) at room temperature for 20 minutes. Then, ^14C-benzylamine (final concentration 1×10^−5 mol/l) was added, and the mixture was incubated at a final volume of 200 μl at 37° C. for 2 hours. The enzyme reaction was stopped by addition of 2 mol/l (200 μl) citric acid. The oxidation product was extracted with 1 ml toluene/ethyl acetate (1:1), and the radioactivity thereof was measured by a liquid scintillation counter.

rat VAP-1 enzyme (SSAO) = biological target: T2, rat VAP-1 enzyme (SSAO) (Rattus norvegicus, UniProt O08590); experiment: Enzyme activity inhibitory effect on rat VAP-1 enzyme (SSAO), radiochemical-enzyme assay with 14C-benzylamine; format: biochemical; details: rat VAP-1 (SSAO) cell extract, 14C-benzylamine 1×10^−5 mol/l, 37° C. 2 hours
T2 construct: made in house; cell extract used
T2 sequence (O08590 1-763): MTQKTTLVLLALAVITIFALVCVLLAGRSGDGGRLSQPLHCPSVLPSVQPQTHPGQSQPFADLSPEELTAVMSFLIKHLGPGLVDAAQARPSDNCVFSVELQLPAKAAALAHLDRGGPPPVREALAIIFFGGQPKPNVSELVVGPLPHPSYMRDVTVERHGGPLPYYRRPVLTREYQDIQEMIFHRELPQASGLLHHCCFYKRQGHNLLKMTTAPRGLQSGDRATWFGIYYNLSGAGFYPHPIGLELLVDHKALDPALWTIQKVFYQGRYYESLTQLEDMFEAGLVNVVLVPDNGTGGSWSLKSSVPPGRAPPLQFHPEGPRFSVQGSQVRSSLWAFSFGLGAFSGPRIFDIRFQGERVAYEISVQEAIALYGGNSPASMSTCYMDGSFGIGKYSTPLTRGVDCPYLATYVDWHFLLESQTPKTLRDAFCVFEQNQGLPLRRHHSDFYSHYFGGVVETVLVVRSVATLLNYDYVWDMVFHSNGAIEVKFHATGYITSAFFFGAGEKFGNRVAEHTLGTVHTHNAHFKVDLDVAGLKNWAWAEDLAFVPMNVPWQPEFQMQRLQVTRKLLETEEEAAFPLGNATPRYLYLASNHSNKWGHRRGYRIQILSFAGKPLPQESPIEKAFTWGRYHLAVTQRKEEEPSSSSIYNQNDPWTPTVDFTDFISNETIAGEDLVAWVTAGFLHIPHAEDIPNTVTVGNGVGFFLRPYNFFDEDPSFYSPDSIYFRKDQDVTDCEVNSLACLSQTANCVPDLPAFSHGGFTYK
Protocol: as §1, §2

SMILES	IC50 [1] [nM]	melting point [°C]	IC50 (rat VAP-1 enzyme (SSAO)) [nM]
CC(=O)Nc1nc(CCc2cc(C)c(CCCNC(=O)NN)s2)cs1.Cl [Production Example 33, N-[3-(5-{2-[2-(acetylamino)-1,3-thiazol-4-yl]ethyl}-3-methylthiophen-2-yl)propyl]hydrazinecarboxamide hydrochloride]	108	152 to 157	2.1
CC(=O)Nc1nc(CCc2ccc(COC(=O)NN)s2)cs1 [Production Example 13, {5-[2-(2-acetylamino-1,3-thiazol-4-yl)ethyl]thiophen-2-yl}methyl hydrazinecarboxylate hydrochloride]	3.4	–	0.7
CC(=O)Nc1nc(CCc2cc(C)c(CCCOC(=O)NN)s2)cs1.Cl [Production Example 17, 3-(5-{2-[2-(acetylamino)-1,3-thiazol-4-yl]ethyl}-3-methylthiophen-2-yl)propyl hydrazinecarboxylate hydrochloride]	68.7	111 to 115	5
CC(=O)Nc1nc(CCc2ccc(CSC(=O)NN)cc2)cs1.Cl [Production Example 34, S-(4-{2-[2-(acetylamino)-1,3-thiazol-4-yl]ethyl}benzyl) hydrazinecarbothioate hydrochloride]	23.2	149 to 158	4.6
CC(=O)Nc1nc(CNc2ccc(CNC(=O)NN)cc2)cs1 [Production Example 23, N-[4-({[2-(acetylamino)-1,3-thiazol-4-yl]methyl}amino)benzyl]hydrazinecarboxamide dihydrochloride]	16.8	–	8.4
CC(=O)Nc1nc(CCc2ccc(COC(=O)NN)cc2)cs1.Cl [Production Example 2, 4-{2-[2-(acetylamino)-1,3-thiazol-4-yl]ethyl}benzyl hydrazinecarboxylate hydrochloride]	0.9	162 to 164	0.7
CC(=O)Nc1nc(CCc2ccc(CCNC(=O)NN)cc2)cs1.Cl [Production Example 19, N-[2-(4-{2-[2-(acetylamino)-1,3-thiazol-4-yl]ethyl}phenyl)ethyl]hydrazinecarboxamide hydrochloride]	12.2	171 to 173	2.3
CC(=O)Nc1nc(CCc2ccc(CNC(=O)NN)cc2F)cs1 (as salt: hydrochloride)	–	165 to 169	–
CC(=O)Nc1nc(CCc2csc(CCCOC(=O)NN)c2)cs1.Cl [Production Example 15, 3-(4-{2-[2-(acetylamino)-1,3-thiazol-4-yl]ethyl}thiophen-2-yl)propyl hydrazinecarboxylate hydrochloride]	13.4	150 to 153	0.6
CC(=O)Nc1nc(CCc2cccc(OC(=O)NN)c2)cs1 (as salt: hydrochloride)	–	158 to 162	–
CC(=O)Nc1nc(CCc2ccc(CNC(=O)NN)c(F)c2F)cs1 [Production Example 22, N-(4-{2-[2-(acetylamino)-1,3-thiazol-4-yl]ethyl}-2,3-difluorobenzyl)hydrazinecarboxamide hydrochloride]	5.5	–	2.2
CC(=O)Nc1nc(COc2ccc(CCNC(=O)NN)cc2)cs1 [Production Example 25, N-[2-(4-{[2-(acetylamino)-1,3-thiazol-4-yl]methoxy}phenyl)ethyl]hydrazinecarboxamide trifluoroacetate]	48.5	–	1.5
CC(=O)Nc1nc(CCc2ccc(CSC(=O)NN)s2)cs1 [Production Example 36, S-[(5-{2-[2-(acetylamino)-1,3-thiazol-4-yl]ethyl}thiophen-2-yl)methyl]hydrazinecarbothioate hydrochloride]	2.3	–	0.6

Now from value to compound:

IC50 [1] [nM]	melting point [°C]	IC50 (rat VAP-1 enzyme (SSAO)) [nM]	SMILES
17.1	225 to 233	1	CC(=O)Nc1nc(C(=O)Nc2ccc(CCOC(=O)NN)cc2)cs1.Cl [Production Example 9, 2-[4-({[2-(acetylamino)-1,3-thiazol-4-yl]carbonyl}amino)phenyl]ethyl hydrazinecarboxylate hydrochloride]
–	231 to 234	–	CC(=O)Nc1nc(C(=O)Nc2ccc(CNC(=O)NN)cc2)cs1.Cl [Production Example 24]
44.3	176 to 179	5.6	CC(=O)Nc1nc(CCc2cccc(CCNC(=O)NN)c2)cs1.Cl [Production Example 28, N-[2-(3-{2-[2-(acetylamino)-1,3-thiazol-4-yl]ethyl}phenyl)ethyl]hydrazinecarboxamide hydrochloride]
4	167 to 169	1.3	CC(=O)Nc1nc(CCc2ccc(CNC(=O)NN)cc2)cs1.Cl [Production Example 18, N-(4-{2-[2-(acetylamino)-1,3-thiazol-4-yl]ethyl}benzyl)hydrazinecarboxamide hydrochloride]
6.4	179 to 184	1.7	CC(=O)Nc1nc(C(=O)Oc2ccc(CCOC(=O)NN)cc2)cs1.Cl [Production Example 8, 4-{2-[(hydrazinocarbonyl)oxy]ethyl}phenyl 2-(acetylamino)-1,3-thiazole-4-carboxylate hydrochloride]
–	153 to 156	–	CC(=O)Nc1nc(CCc2csc(CCCNC(=O)NN)c2)cs1 (as salt: hydrochloride)
–	147 to 153	–	CC(=O)Nc1nc(CCc2ccc(CSC(=O)NN)s2)cs1 (as salt: hydrochloride) [Production Example 36, S-[(5-{2-[2-(acetylamino)-1,3-thiazol-4-yl]ethyl}thiophen-2-yl)methyl]hydrazinecarbothioate hydrochloride]
–	111 to 115	–	CC(=O)Nc1nc(CCc2cc(CCCNC(=O)NN)cs2)cs1 (as salt: hydrochloride) [Production Example 32, N-[3-(5-{2-[2-(acetylamino)-1,3-thiazol-4-yl]ethyl}thiophen-3-yl)propyl]hydrazinecarboxamide hydrochloride]
5.1	–	5.3	CC(=O)Nc1nc(CCc2ccc(CCOC(=O)NN)s2)cs1 [Production Example 14, 2-(5-{2-[2-(acetylamino)-1,3-thiazol-4-yl]ethyl}thiophen-2-yl)ethyl hydrazinecarboxylate hydrochloride]
7.3	–	1	CC(=O)Nc1nc(C(=O)Nc2ccc(CNC(=O)NN)cc2)cs1.Cl [Production Example 24, 2-(acetylamino)-N-(4-{[hydrazinocarbonyl)amino]methyl}phenyl)-1,3-thiazole-4-carboxamide hydrochloride]
1.3	–	0.6	CC(=O)Nc1nc(CCc2ccc(COC(=O)NN)c(F)c2F)cs1 [Production Example 6, 4-{2-[2-(acetylamino)-1,3-thiazol-4-yl]ethyl}-2,3-difluorobenzyl hydrazinecarboxylate hydrochloride]
